# Square brackets hold non-standard residues; d marks the D form. Ends that are not written are not given here. Peptide text beside a SMILES is read from it. Nle = CCCC[C@H](N)C(=O)O
# Experiments:
# [1] = test system: SH-SY5Y Neuroblastoma Cells; test: ATP levels (CellTiter-Glo); format: cell-based, human; conditions: peptide 10 μM, 18-20 hours, relative to 0.1% DMSO treated control
# Method: The effect of the peptides on cellular metabolism can be assessed using an assay of ATP levels in cultured cells such as human neuroblastoma cells. Peptides were initially prepared as 10 mM stock in DMSO and used at a final concentration of 10 μM (0.1% DMSO). […] CellTiter-Glo® Assay kit was purchased from Promega. SH-SY5Y human bone marrow neuroblastoma cell line was purchased from American Type Culture Collection (Manassas, VA) and licensed from Memorial Sloan-Kettering Cancer Center (New York, NY). SH-SY5Y cells were grown in DMEM/F12 medium supplemented with 10% FBS with 100 IU/ml penicillin and 100 μg/ml streptomycin. Cultures were maintained at 37° C. in a humidified atmosphere of 5% CO2/95% air. SH-SY5Y cells were seeded at 30,000 cells per well on 96-well plates. […] ATP levels were determined using a CellTiter-Glo Assay kit (Promega) according to the manufacturer's instructions. Luminescence for each sample well on the plate was measured using a Cytation 3 plate reader (BioTek, Winooski, VT). Activity was calculated relative to 0.1% DMSO treated control. The relative standard deviation of the result for the 0.1% DMSO treated control was <5%.
# C2C12 Mouse Myoblasts = test: Glucose utilization (glucose remaining in medium); format: cell-based; conditions: peptide 10 μM, 18-22 hours, relative to 0.1% DMSO treated control cells
# Method: The effect of the peptides on glucose metabolism can be assessed using an assay of glucose utilization in cultured cells such as mouse myoblasts. Peptides were initially prepared as 10 mM stock in DMSO and used at a final concentration of 10 μM (0.1% DMSO). C2C12 mouse myoblast cell line was purchased from American Type Culture Collection (Manassas, VA). C2C12 cultures were maintained at 37° C. in a humidified atmosphere of 5% CO2/95% air with medium changes every second day. C2C12 cells were grown in DMEM (1 g/L glucose) supplemented with 10% FBS with 100 IU/ml penicillin and 100 μg/ml streptomycin. C2C12 cells were seeded at 7,000 cells per well on 96-well plates and cultured to confluence. Once the cell reached confluence the media was changed to DMEM (1 g/L glucose) supplemented with 2% HS with 100 IU/ml penicillin and 100 μg/ml streptomycin and maintained at 37° C. in a humidified atmosphere of 5% CO2/95% air. 5 days post-induction of differentiation fresh DMEM (1 g/L glucose) supplemented with 2% HS with 100 IU/ml penicillin and 100 μg/ml streptomycin was added to cultures. Cells were maintained at 37° C. in a humidified atmosphere of 5% CO2 and 95% air for 5 hours. After 5 hours test peptides at 10 μM or controls (0.5 mM or 1 mM metformin in 1% DMSO) prepared in fresh differentiation medium were added to cells and the cultures were maintained at 37° C. in a humidified atmosphere of 5% CO2/95% air for 18-22 hours. At the end of the incubation culture media was removed from the cells and the remaining glucose concentration was measured using a Glucose Assay kit (Abcam) according to the manufacturer's instructions, using a Cytation 3 plate reader at 570 nm (BioTek, Winooski, VT). Glucose concentrations in the medium were calculated relative to 0.1% DMSO treated control cells. The relative standard deviation of the result for the 0.1% DMSO treated control was <20%. Metformin was used as a positive control for reduction of glucose levels (increased glucose utilization glucose levels for treatment with metformin (1 mM) treatment were <20% of the 0.1% DMSO treated control value. The results are reported in Table 11.
Compound,"ATP Levels, % Control [1] [%]","Glucose Utilization (glucose concentration in medium), Percent of Untreated Control (C2C12 Mouse Myoblasts) [%]"
CC[C@H](C)[C@H](NC(=O)[C@H](CC(C)C)NC(=O)[C@H](CC(C)C)NC(=O)[C@@H](N)CCSC)C(=O)N[C@@H](CC(C)C)C(=O)N[C@H](C(=O)N[C@@H](CC(C)C)C(=O)N[C@H](C(=O)N[C@@H](CC(C)C)C(=O)N[C@H](C)C(=O)O)C(C)C)[C@@H](C)O [compound 3] (H-MLLILTLVL[dA]-OH; N-terminus and C-terminus assumed),104.8,105.2
CC[C@H](C)[C@H](NC(=O)[C@H](CC(C)C)NC(=O)[C@H](C)NC(=O)[C@@H](N)CCSC)C(=O)N[C@@H](CC(C)C)C(=O)N[C@H](C(=O)N[C@@H](CC(C)C)C(=O)N[C@H](C(=O)N[C@@H](CC(C)C)C(=O)N[C@H](C)C(=O)O)C(C)C)[C@@H](C)O [compound 4] (H-MALILTLVL[dA]-OH; N-terminus and C-terminus assumed),102.2,117.2
CC[C@H](C)[C@H](NC(=O)[C@H](CC(C)C)NC(=O)[C@H](C)NC(=O)[C@@H](N)CCSC)C(=O)N[C@@H](CC(=O)O)C(=O)N[C@H](C(=O)N[C@@H](CC(C)C)C(=O)N[C@H](C(=O)N[C@@H](CC(C)C)C(=O)N[C@H](C)C(=O)O)C(C)C)[C@@H](C)O [compound 5] (H-MALIDTLVL[dA]-OH; N-terminus and C-terminus assumed),97.1,128.8
CC[C@H](C)[C@H](NC(=O)[C@@H](NC(=O)CNC(=O)[C@@H](C)NC(=O)[C@@H](N)CCSC)C(C)C)C(=O)N[C@@H](CCCNC(=N)N)C(=O)NCC(=O)N[C@H](C(=O)N[C@@H](CC(C)C)C(=O)N[C@H](C(=O)N[C@@H](CC(C)C)C(=O)O)C(C)C)C(C)C [compound 9] (H-M[dA]GVIRGVLVL-OH; N-terminus and C-terminus assumed),105.9,128.4
CC[C@H](C)[C@H](NC(=O)[C@@H](NC(=O)CNC(=O)[C@@H](C)NC(=O)[C@@H](N)CCSC)C(C)C)C(=O)N[C@@H](CCCNC(=N)N)C(=O)N[C@@H](C)C(=O)N[C@H](C(=O)N[C@@H](CC(C)C)C(=O)N[C@H](C(=O)N[C@@H](CC(C)C)C(=O)O)C(C)C)C(C)C [compound 10] (H-M[dA]GVIRAVLVL-OH; N-terminus and C-terminus assumed),103.2,109.1
CC[C@H](C)[C@H](NC(=O)[C@H](Cc1c[nH]c2ccccc12)NC(=O)[C@H](CCC(N)=O)NC(=O)[C@@H](N)CCCNC(=N)N)C(=O)N[C@@H](CC(C)C)C(=O)N[C@@H](Cc1c[nH]cn1)C(=O)N[C@@H](CC(N)=O)C(=O)N[C@H](C)C(=O)NCC(=O)N[C@@H](CCSC)C(=O)N[C@@H](CO)C(=O)N[C@@H](Cc1ccccc1)C(=O)N[C@@H](Cc1ccccc1)C(=O)N[C@@H](CS)C(=O)O [compound 14] (H-RQWILHN[dA]GMSFFC-OH; N-terminus and C-terminus assumed),98.4,115.7
CSCC[C@H](NC(=O)CNC(=O)[C@@H](C)NC(=O)[C@H](CC(N)=O)NC(=O)[C@H](Cc1c[nH]cn1)NC(=O)[C@H](CC(C)C)NC(=O)[C@H](CCC(=O)O)NC(=O)[C@H](Cc1c[nH]c2ccccc12)NC(=O)[C@H](CCC(N)=O)NC(=O)[C@@H](N)CCCNC(=N)N)C(=O)N[C@@H](CO)C(=O)N[C@@H](C)C(=O)N[C@@H](Cc1ccccc1)C(=O)N[C@@H](CS)C(=O)O [compound 15] (H-RQWELHN[dA]GMSAFC-OH; N-terminus and C-terminus assumed),101.8,115.1
CSCC[C@H](NC(=O)[C@H](CCCNC(=N)N)NC(=O)[C@H](CCCNC(=N)N)NC(=O)[C@@H](N)CCCNC(=N)N)C(=O)N[C@@H](Cc1ccccc1)C(=O)N[C@@H](CO)C(=O)N[C@@H](CS)C(=O)N[C@@H](Cc1ccc(O)cc1)C(=O)N[C@H](C)C(=O)N[C@@H](Cc1ccc(O)cc1)C(=O)O [compound 19] (H-RRRMFSCY[dA]Y-OH; N-terminus and C-terminus assumed),106.7,115.7
CCCC[C@H](NC(=O)[C@H](CCCNC(=N)N)NC(=O)[C@H](CCCNC(=N)N)NC(=O)[C@@H](N)CCCNC(=N)N)C(=O)N[C@@H](Cc1ccccc1)C(=O)N[C@@H](CO)C(=O)N[C@@H](CS)C(=O)N[C@@H](Cc1ccc(O)cc1)C(=O)N[C@H](C)C(=O)N[C@@H](Cc1ccc(O)cc1)C(=O)O [compound 20] (H-RRR[Nle]FSCY[dA]Y-OH; N-terminus and C-terminus assumed),106.9,113.2
CC[C@H](C)[C@H](NC(=O)[C@@H](NC(=O)[C@H](Cc1c[nH]cn1)NC(=O)[C@H](CCCNC(=N)N)NC(=O)[C@H](CC(=O)O)NC(=O)[C@H](Cc1ccc(O)cc1)NC(=O)[C@H](CC(C)C)NC(=O)[C@H](CC(C)C)NC(=O)[C@@H](NC(=O)[C@@H](N)Cc1c[nH]c2ccccc12)C(C)C)C(C)C)C(=O)NCC(=O)NCC(=O)N[C@@H](CO)C(=O)N[C@@H](CC(C)C)C(=O)N[C@@H](CS)C(=O)N[C@H](C(=O)N[C@H](C(=O)N[C@H](C(=O)N[C@@H](CCC(N)=O)C(=O)N[C@H](C(=O)N[C@@H](CCC(=O)O)C(=O)N[C@H](C)C(=O)N[C@@H](Cc1ccc(O)cc1)C(=O)O)C(C)C)C(C)C)C(C)C)C(C)C [compound 23] (H-WVLLYDRHVIGGSLCVVVQVE[dA]Y-OH; N-terminus and C-terminus assumed),105.9,109.6
CC[C@H](C)[C@H](NC(=O)[C@@H](NC(=O)[C@H](Cc1c[nH]cn1)NC(=O)[C@H](CCCNC(=N)N)NC(=O)[C@H](CC(=O)O)NC(=O)[C@H](Cc1ccc(O)cc1)NC(=O)[C@H](CC(C)C)NC(=O)[C@H](CC(C)C)NC(=O)[C@@H](NC(=O)[C@@H](N)Cc1c[nH]c2ccccc12)C(C)C)C(C)C)C(=O)NCC(=O)NCC(=O)N[C@@H](CO)C(=O)N[C@@H](CC(C)C)C(=O)N[C@@H](CS)C(=O)N[C@H](C(=O)N[C@H](C(=O)N[C@H](C(=O)N[C@@H](CCC(N)=O)C(=O)N[C@H](C(=O)N[C@@H](CCC(=O)O)C(=O)N[C@H](C)C(=O)O)C(C)C)C(C)C)C(C)C)C(C)C [compound 24] (H-WVLLYDRHVIGGSLCVVVQVE[dA]-OH; N-terminus and C-terminus assumed),98.3,109.1
CC[C@H](C)[C@H](NC(=O)[C@@H](NC(=O)[C@H](Cc1c[nH]cn1)NC(=O)[C@H](CCCNC(=N)N)NC(=O)[C@H](CC(=O)O)NC(=O)[C@H](Cc1ccc(O)cc1)NC(=O)[C@H](CC(C)C)NC(=O)[C@H](CC(C)C)NC(=O)[C@@H](NC(=O)[C@@H](N)Cc1c[nH]c2ccccc12)C(C)C)C(C)C)C(=O)NCC(=O)NCC(=O)N[C@@H](CO)C(=O)N[C@@H](CC(C)C)C(=O)N[C@@H](CS)C(=O)N[C@H](C(=O)N[C@@H](CCC(N)=O)C(=O)N[C@H](C(=O)N[C@@H](CCC(N)=O)C(=O)N[C@H](C(=O)N[C@@H](CCC(=O)O)C(=O)N[C@H](C)C(=O)O)C(C)C)C(C)C)C(C)C [compound 25] (H-WVLLYDRHVIGGSLCVQVQVE[dA]-OH; N-terminus and C-terminus assumed),106.9,107.2
GWVLLYDRHVIGGSLCVVVQVEAY [compound 22],103.5,70.4
MAGVIRGVLVL [compound 8],101.1,115.0
MLLILTLVLL [compound 2],99.9,113.5

# — patent publication US20240034753A1, “THERAPEUTIC PEPTIDES” (COHBAR, INC., priority 2020, published 2024)
